# Results as given in PMC6895180 (Nature Communications, 2019).
# “And” between values parts separate entries of the source, which are not always exact repeats. Equal entries are not always repeated. Where two headings read alike, the source gives them in different places. Marks after values point to notes of the source that are not given here.
# Assays:
# [1] = target: T1, P2 transporter (TbAT1) (Trypanosoma brucei brucei, UniProt Q9Y0I0); assay: cell-based
# Description: Non-specific association of radiolabel with the cell pellet was determined using an identical incubation in the presence of saturating (1 mM) unlabelled adenosine.
# [2] = tested on: Lister 427WT T. b. brucei; assay: Adenosine deaminase susceptibility (drug sensitivity with/without 2 µM deoxycoformycin); type: cell-based, Trypanosoma brucei brucei; settings: Trypanosoma brucei, Lister 427WT, mean ± SEM, n=3
# Description: Drug susceptibility tests with Lister 427WT, TbAT1-KO[48], B48[26] and ISMR1[27] were performed using an assay based on the viability indicator dye resazurin in 96-well plates, each well containing 2 × 10^4 cells. The plates were incubated for 48 h with a doubling dilution series of the test compounds in HMI-9/fetal bovine serum at 37 °C/5% CO2 (23 dilutions starting at 100 µM, except for the pentamidine control (50 µM)), after which resazurin (20 µL of 125 µg mL^−1 resazurin sodium salt solution was added to each well (containing 200 µL of cells and test compound)) was added to each well and the plates incubated for another 24 h. Fluorescence was determined using a FLUOstar Optima (BMG Labtech, Durham, NC) and the results fitted to a sigmoid curve with variable slope using Prism 5.0 or Prism 7.04 (GraphPad, San Diego, CA). […]
# Adenosine deaminase susceptibility
# in the presence or absence of 2 µM 2’-deoxycoformycin. […]
# [3] = tested on: T. brucei BSF s427 wildtype cells; assay: Growth assays of T. brucei (trypanocidal/trypanostatic effect); type: cell-based, Trypanosoma brucei; settings: experiment 1
# Description: Growth assays of T. brucei
# To test the effect of the novel adenosine analogues on the growth of T. brucei BSF, s427 wildtype cells were seeded at 1×10^5 cells mL-1 in 5 mL of HMI-9 medium with 10% FBS and treated with compounds […]
# cells were also incubated in drug-free medium under the same conditions. 2 μM of 2’-deoxycoformycin were added to all cultures to avoid any potential effect of serum adenosine deaminase on the activity of test compounds and cordycepin.1
# Cells were manually counted in Neubauer chambers at 0, 2, 4, 6, 8, 12, 24, 36 and 48 h after addition of […]
# the drugs. […]
# After 6 and 12 h after addition of drugs, approximately 2×10^6 cells were harvested from each group and applied to glass slides pre-treated with poly-L-lysine, left to settle for 5 min and fixed with 4% formaldehyde for 4 min. The formaldehyde was neutralised by addition of 100 mM glycine (20 min).
# Cells were washed once with PBS and blocked for 1 h with 1% BSA/0.2% Tween-20 in PBS. Cells were […]
# [4] = target: P1 transporter; design: method as in PMID 10570043; settings: ref [29]; cited from earlier work
# [5] = target: T1, P2 transporter (TbAT1); design: method as in PMID 24283924; settings: ref [18]; cited from earlier work
# [6] = tested on: T. brucei Squib 427; assay: microbe, parasite or virus in culture; type: cell-based, Trypanosoma brucei brucei
# Description: (§1) Drug susceptibility tests with Lister 427WT, TbAT1-KO[48], B48[26] and ISMR1[27] were performed using an assay based on the viability indicator dye resazurin in 96-well plates, each well containing 2 × 10^4 cells. The plates were incubated for 48 h with a doubling dilution series of the test compounds in HMI-9/fetal bovine serum at 37 °C/5% CO2 (23 dilutions starting at 100 µM, except for the pentamidine control (50 µM)), after which resazurin (20 µL of 125 µg mL^−1 resazurin sodium salt solution was added to each well (containing 200 µL of cells and test compound)) was added to each well and the plates incubated for another 24 h. Fluorescence was determined using a FLUOstar Optima (BMG Labtech, Durham, NC) and the results fitted to a sigmoid curve with variable slope using Prism 5.0 or Prism 7.04 (GraphPad, San Diego, CA).
# (§2) Susceptibility assays with T. brucei Squib 427[49] or T. b. rhodesiense STIB-900[50] were performed under similar conditions as above, but using 10 concentrations of a 4-fold compound dilution series starting at 64 µM. Trypanosoma brucei Squib 427 was seeded at 1.5 × 10^4 parasites/well and T. b. rhodesiense at 4 × 10^3 parasites per well, followed by the addition of resazurin (final concentration of 10 µg mL^−1) after 24 h (T. brucei) or 6 h (T. b. rhodesiense).
# [7] = tested on: T. b. rhodesiense STIB-900; assay: microbe, parasite or virus in culture; type: cell-based, Trypanosoma brucei rhodesiense
# Description: as §1, §2
# [8] = Cytotoxicity on MRC-5 fibroblasts (resazurin); type: cell-based, human; settings: human, MRC-5SV2 human embryonic lung fibroblasts, source data; read-out: MRC-5 EC50, single measurements
# Description: (§3) Cytotoxicity assays were performed on MRC-5SV2 (Sigma-Aldrich/ECACC, catalogue number 84100401) human embryonic lung fibroblasts, which were cultured in minimum essential medium with Earle’s salt medium, supplemented with L-glutamine, NaHCO3 and 5% inactivated foetal calf serum. All cultures and assays were conducted at 37 °C with 5% CO2. Ten microliters of the aqueous compound dilutions were added to 190 µL of MRC-5SV2 (3 × 10^4 cells mL^−1). Cell growth was compared to untreated control wells (100% cell growth) and medium control wells (0% cell growth). After a 3-day incubation, cell viability was assessed fluorimetrically after the addition of 50 μL resazurin per well (final concentration of 10 µg mL^−1). After 4 h at 37 °C, fluorescence was measured (λex 550 nm, λem 590 nm). The results were expressed as percentage reduction in cell growth/viability compared to control wells and an EC50 was determined.
# [9] = tested on: MRC-5SV2 human embryonic lung fibroblasts; assay: Cytotoxicity on MRC-5 fibroblasts (resazurin); type: cell-based; settings: source data; read-out: MRC-5 EC50, single measurements
# Description: as §3
# [10] = tested on: T. b. brucei Lister 427WT; assay: Drug susceptibility test (resazurin), Lister 427WT; type: cell-based, Trypanosoma brucei brucei
# In short: (§4)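 Trypanosomes (2 × 10^4 cells/well) exposed 48 h at 37 °C/5% CO2 in HMI-9/FBS to 23-step doubling dilutions from 100 µM, then resazurin added for a further 24 h. Fluorescence fitted to a variable-slope sigmoid curve.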
# [11] = tested on: ISMR1: isometamidium-resistant T. brucei cell line; assay: microbe, parasite or virus in culture; type: cell-based, Trypanosoma brucei brucei
# In short: as §4
# [12] = tested on: TbAT1-KO: T. brucei cell line lacking the TbAT1(P2) transporter gene; assay: microbe, parasite or virus in culture; type: cell-based, Trypanosoma brucei brucei
# In short: as §4
# [13] = tested on: B48: pentamidine, diminazene and melaminophenyl arsenical resistant T. brucei line; assay: microbe, parasite or virus in culture; type: cell-based, Trypanosoma brucei brucei
# [14] = resistance factor vs Lister 427WT
# T1 sequence (Q9Y0I0 entry or part of it): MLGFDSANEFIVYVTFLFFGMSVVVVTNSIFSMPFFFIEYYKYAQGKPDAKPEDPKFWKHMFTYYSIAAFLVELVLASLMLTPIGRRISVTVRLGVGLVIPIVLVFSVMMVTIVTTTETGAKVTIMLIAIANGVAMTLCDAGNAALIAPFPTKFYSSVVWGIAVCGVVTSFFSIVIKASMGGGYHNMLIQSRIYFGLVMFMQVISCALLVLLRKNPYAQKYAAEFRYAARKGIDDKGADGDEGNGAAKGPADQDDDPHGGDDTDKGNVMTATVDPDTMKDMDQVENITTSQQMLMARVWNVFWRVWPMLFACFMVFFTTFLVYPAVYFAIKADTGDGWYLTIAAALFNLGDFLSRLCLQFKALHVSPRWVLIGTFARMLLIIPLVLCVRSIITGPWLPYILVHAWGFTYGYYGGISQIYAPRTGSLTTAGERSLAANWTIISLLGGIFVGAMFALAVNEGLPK
compound,measurement,setting,value
"Nc1ncnc2c1ncn2[C@@H]1O[C@H](CO)C[C@H]1O [Compound 3, cordycepin, reference compound]","P2 Ki, fold lower than the Km value for adenosine",[1],roughly 3 fold
same,energy advantage at P2 versus adenosine,[1],roughly 3 kJ mol^−1
same,P2 transporter ΔG^0,[1]; Gibbs free energy from −RT ln(Ki),-38.5 kJ/mol
same,P2 transporter δ(ΔG^0),[1]; in comparison to adenosine,-2.7 kJ/mol
same,EC50,"[2]; absence of deoxycoformycin, read-out: T. b. brucei EC50, -Dcf",440 ± 110 nM
same,EC50,"[2]; presence of 2 µM deoxycoformycin, read-out: T. b. brucei EC50, +Dcf",3.6 ± 1 nM
same,AVG of cells/mL,"[3]; 2xEC50, 2 h",122500 cells/mL
same,Cells/mL,"[3]; 2xEC50, 2 h",130000 Cells/mL and 115000 Cells/mL
same,Counts,"[3]; 2xEC50, 2 h",52 and 46
same,AVG of cells/mL,"[3]; 2xEC50, 4 h",122500 cells/mL
same,Cells/mL,"[3]; 2xEC50, 4 h",110000 Cells/mL and 135000 Cells/mL
same,Counts,"[3]; 2xEC50, 4 h",44 and 54
same,AVG of cells/mL,"[3]; 2xEC50, 6 h",161250 cells/mL
same,Cells/mL,"[3]; 2xEC50, 6 h",150000 Cells/mL and 172500 Cells/mL
same,Counts,"[3]; 2xEC50, 6 h",60 and 69
same,AVG of cells/mL,"[3]; 2xEC50, 8 h",187500 cells/mL
same,Cells/mL,"[3]; 2xEC50, 8 h",207500 Cells/mL and 167500 Cells/mL
same,Counts,"[3]; 2xEC50, 8 h",83 and 67
same,AVG of cells/mL,"[3]; 2xEC50, 12 h",195000 cells/mL
same,Counts,"[3]; 2xEC50, 12 h",75 and 81
same,AVG of cells/mL,"[3]; 2xEC50, 24 h",106250 cells/mL
same,Cells/mL,"[3]; 2xEC50, 24 h",82500 Cells/mL and 130000 Cells/mL
same,Counts,"[3]; 2xEC50, 24 h",33 and 52
same,AVG of cells/mL,"[3]; 2xEC50, 36 h",81250 cells/mL
same,Counts,"[3]; 2xEC50, 36 h",29 and 36
same,AVG of cells/mL,"[3]; 2xEC50, 48 h",105000 cells/mL
same,Cells/mL,"[3]; 2xEC50, 48 h",105000 Cells/mL
same,Counts,"[3]; 2xEC50, 48 h",42
same,AVG of cells/mL,"[3]; 5xEC50, 2 h",145000 cells/mL
same,Cells/mL,"[3]; 5xEC50, 2 h",177500 Cells/mL and 112500 Cells/mL
same,Counts,"[3]; 5xEC50, 2 h",71 and 45
same,AVG of cells/mL,"[3]; 5xEC50, 4 h",118750 cells/mL
same,Cells/mL,"[3]; 5xEC50, 4 h",107500 Cells/mL and 130000 Cells/mL
same,Counts,"[3]; 5xEC50, 4 h",43 and 52
same,AVG of cells/mL,"[3]; 5xEC50, 6 h",130000 cells/mL
same,Cells/mL,"[3]; 5xEC50, 6 h",130000 Cells/mL
same,Counts,"[3]; 5xEC50, 6 h",52
same,AVG of cells/mL,"[3]; 5xEC50, 8 h",172500 cells/mL
same,Cells/mL,"[3]; 5xEC50, 8 h",177500 Cells/mL and 167500 Cells/mL
same,Counts,"[3]; 5xEC50, 8 h",71 and 67
same,AVG of cells/mL,"[3]; 5xEC50, 12 h",156250 cells/mL
same,Counts,"[3]; 5xEC50, 12 h",60 and 65
same,AVG of cells/mL,"[3]; 5xEC50, 24 h",33750 cells/mL
same,Cells/mL,"[3]; 5xEC50, 24 h",35000 Cells/mL and 32500 Cells/mL
same,Counts,"[3]; 5xEC50, 24 h",14 and 13
same,AVG of cells/mL,"[3]; 5xEC50, 36 h",31250 cells/mL
same,Cells/mL,"[3]; 5xEC50, 36 h",32500 Cells/mL and 30000 Cells/mL
same,Counts,"[3]; 5xEC50, 36 h",13 and 12
same,AVG of cells/mL,"[3]; 5xEC50, 48 h",15000 cells/mL
same,Cells/mL,"[3]; 5xEC50, 48 h",15000 Cells/mL
same,Counts,"[3]; 5xEC50, 48 h",6
same,Ki,[4],210 ± 48 µM
same,Ki,[5],180 ± 20 nM
"Nc1ncnc2c1c(Br)cn2[C@H]1C[C@H](O)[C@@H](CO)O1 [Compound 12, 7-Br-2′-deoxy-TUB]",EC50,"[6]; Trypanosoma brucei, Alamar blue cell viability assay, mean and SEM, read-out: T. b. brucei EC50",460 ± 80 nM
same,EC50,"[6]; Trypanosoma brucei, source data, read-out: T. brucei brucei EC50, Average",460 nM
same,EC50,"[6]; Trypanosoma brucei, source data, read-out: T. brucei brucei EC50, single measurements",382 nM
same,SI (MRC/T.b. brucei),[6]; selectivity index,13
same,EC50,"[6]; source data, read-out: T. brucei brucei EC50, single measurements",533 nM
same,EC50,"[7]; Trypanosoma brucei, RHODESIENSE, Alamar blue cell viability assay, mean and SEM, read-out: T. b. rhodesiense EC50",120 ± 10 nM
same,EC50,"[7]; Trypanosoma brucei, RHODESIENSE, source data, read-out: T. brucei rhodesiense EC50, Average",120 nM
same,EC50,"[7]; Trypanosoma brucei, RHODESIENSE, source data, read-out: T. brucei rhodesiense EC50, single measurements",116 nM
same,SI (MRC/T.b. rhodesiense),[7]; selectivity index,50
same,EC50,"[7]; source data, read-out: T. brucei rhodesiense EC50, single measurements",126 nM
same,EC50 at 3 day,[8],6.83 µM
same,EC50,[9],5.37 µM
same,EC50,"[10]; Trypanosoma brucei, mean and SEM, n = 3, read-out: Lister 427 EC50",310 ± 63 nM
same,EC50,"[10]; Trypanosoma brucei, source data, read-out: s427 EC50, AVG",313 nM
same,EC50,"[10]; Trypanosoma brucei, source data, read-out: s427 EC50, single determinations",376 nM
same,EC50,"[10]; source data, read-out: s427 EC50, single determinations",251 nM and 355 nM
same,EC50,"[11]; Trypanosoma brucei, mean and SEM, n = 3, read-out: ISMR1 EC50",920 ± 120 nM
same,EC50,"[11]; Trypanosoma brucei, source data, read-out: ISMR1 EC50, AVG",919 nM
same,EC50,"[11]; Trypanosoma brucei, source data, read-out: ISMR1 EC50, single determinations",1150 nM
same,RF (ISMR1),[11]; [14],2.93**
same,EC50,"[11]; source data, read-out: ISMR1 EC50, single determinations",731 nM and 876 nM
same,EC50,"[12]; Trypanosoma brucei, read-out: TbAT1-KO EC50, AVG, source data",758 nM
same,EC50,"[12]; Trypanosoma brucei, read-out: TbAT1-KO EC50, mean and SEM, n = 3",760 ± 180 nM
same,EC50,"[12]; Trypanosoma brucei, read-out: TbAT1-KO EC50, single determinations, source data",940 nM
same,EC50,"[12]; read-out: TbAT1-KO EC50, single determinations, source data",576 nM and 850 nM
same,RF (TbAT1-KO),[12]; resistance factor: ratio of EC50 of resistant and Lister 427WT,2.37*
same,EC50,"[13]; Trypanosoma brucei, mean and SEM, n = 3, read-out: B48 EC50",830 ± 160 nM
same,EC50,"[13]; Trypanosoma brucei, source data, read-out: B48 EC50, AVG",827 nM
same,EC50,"[13]; Trypanosoma brucei, source data, read-out: B48 EC50, single determinations",990 nM
same,RF (B48),[13]; [14],2.64**
same,EC50,"[13]; source data, read-out: B48 EC50, single determinations",664 nM and 844 nM
